Measurements taken from the supplement of paper PMC13380429.

Assays:
[1] = test system: U2OS; assay: cell viability relative to DMSO; higher = less toxic; settings: 72 h
[2] = test system: HepG2; assay: as above; settings: 72 h
[3] = test system: Calu-3; assay: as above; settings: 72 h
[4] = test system: Vero E6; assay: as above; settings: 72 h
[5] = test system: Caco-2; assay: as above; settings: 72 h
[6] = test system: A549-ACE2 infected with SARS-CoV-2; assay: morphology score (similarity to uninfected cells); higher = more like uninfected cells; settings: 24 h
[7] = test system: A549-ACE2 infected with SARS-CoV-2; assay: cell count relative to DMSO; higher = less toxic; settings: 24 h
[8] = test system: U2OS; assay: relative viability EC50 (midpoint between 100% and the lowest measured viability); higher = less toxic; settings: 72 h
[9] = test system: HepG2; assay: as above; settings: 72 h
[10] = test system: Calu-3; assay: as above; settings: 72 h
[11] = test system: Vero E6; assay: as above; settings: 72 h
[12] = test system: A549-ACE2 infected with SARS-CoV-2; assay: SARS-CoV-2 infection rate relative to DMSO; higher = more infection; settings: 24 h
[13] = test system: A549-ACE2; assay: drug-induced phospholipidosis relative to tamoxifen; higher = more phospholipidosis
[14] = test system: U2OS; assay: drug sensitivity score (DSS) for viability; higher = more toxic; extreme values may be limits of the assay; settings: 72 h
[15] = test system: HepG2; assay: as above; settings: 72 h
[16] = test system: Calu-3; assay: as above; settings: 72 h
[17] = test system: Vero E6; assay: as above; settings: 72 h
[18] = test system: Caco-2; assay: as above; settings: 72 h

C#C[C@]1(O)CC[C@H]2[C@@H]3CCc4cc(OC5CCCC5)ccc4[C@H]3CC[C@@]21C [quinestrol]
cell viability ([1]; 1 nM): 102% | cell viability ([1]; 10 nM): 98.9% | cell viability ([1]; 100 nM): 104% | cell viability ([1]; 1000 nM): 100% | cell viability ([1]; 10000 nM): 93.8% | cell viability ([2]; 1 nM): 92.1% | cell viability ([2]; 10 nM): 93.2% | cell viability ([2]; 100 nM): 88.9% | cell viability ([2]; 1000 nM): 95.5% | cell viability ([2]; 10000 nM): 76.6% | cell viability ([3]; 1 nM): 97.9% | cell viability ([3]; 10 nM): 98.6% | cell viability ([3]; 100 nM): 99.8% | cell viability ([3]; 1000 nM): 91.1% | cell viability ([3]; 10000 nM): 41% | cell viability ([4]; 1 nM): 98.4% | cell viability ([4]; 10 nM): 104% | cell viability ([4]; 100 nM): 100% | cell viability ([4]; 1000 nM): 104% | cell viability ([4]; 10000 nM): 87.4% | cell viability ([5]; 1 nM): 99.4% | cell viability ([5]; 10 nM): 92.1% | cell viability ([5]; 100 nM): 98.7% | cell viability ([5]; 1000 nM): 96.5% | cell viability ([5]; 10000 nM): 67.8% | morphology score ([6]; 0.3 µM): -0.03 | morphology score ([6]; 3 µM): 0.43 | morphology score ([6]; 10 µM): 0.68 | morphology score ([6]; 30 µM): 0.01 | cell count ([7]; 0.3 µM): 105% | cell count ([7]; 3 µM): 110% | cell count ([7]; 10 µM): 85% | cell count ([7]; 30 µM): 23% | relative viability EC50 [8]: > 10 µM | relative viability EC50 [9]: > 10 µM | relative viability EC50 [10]: 1980 nM | relative viability EC50 [11]: > 10 µM | SARS-CoV-2 infection rate ([12]; 0.3 µM): 103% | SARS-CoV-2 infection rate ([12]; 3 µM): 85% | SARS-CoV-2 infection rate ([12]; 10 µM): 41% | SARS-CoV-2 infection rate ([12]; 30 µM): 42% | drug-induced phospholipidosis ([13]; 0.3 µM, 24 h): 11.1% | drug-induced phospholipidosis ([13]; 0.3 µM, 48 h): 12.2% | drug-induced phospholipidosis ([13]; 0.3 µM, 72 h): 8.56% | drug-induced phospholipidosis ([13]; 0.833333 µM, 24 h): 13.7% | drug-induced phospholipidosis ([13]; 0.833333 µM, 48 h): 17.8% | drug-induced phospholipidosis ([13]; 0.833333 µM, 72 h): 16.2% | drug-induced phospholipidosis ([13]; 3.33333 µM, 24 h): 17.2% | drug-induced phospholipidosis ([13]; 3.33333 µM, 48 h): 21.2% | drug-induced phospholipidosis ([13]; 3.33333 µM, 72 h): 19.1% | drug-induced phospholipidosis ([13]; 6.66667 µM, 24 h): 16.9% | drug-induced phospholipidosis ([13]; 6.66667 µM, 48 h): 25.8% | drug-induced phospholipidosis ([13]; 6.66667 µM, 72 h): 27.3% | drug-induced phospholipidosis ([13]; 10 µM, 24 h): 13.9% | drug-induced phospholipidosis ([13]; 10 µM, 48 h): 23.6% | drug-induced phospholipidosis ([13]; 10 µM, 72 h): 29.2% | drug-induced phospholipidosis ([13]; 30 µM, 24 h): 23.3% | drug-induced phospholipidosis ([13]; 30 µM, 48 h): 37.6% | drug sensitivity score [14]: 0 | drug sensitivity score [15]: 1.3 | drug sensitivity score [16]: 4.7 | drug sensitivity score [17]: 0 | drug sensitivity score [18]: 2
